# Measured values as given in publication PMC5863496, “Mesobuthus Venom-Derived Antimicrobial Peptides Possess Intrinsic Multifunctionality and Differential Potential as Drugs” (Frontiers in Microbiology, 2018).
# Ends that are not written are not given here.
# Assays:
# Assay in all cases: Inhibition-zone assay (CL)
# Format in all cases: cell-based
# [1] = test system: Bacillus megaterium CGMCC 1.0459; conditions: BM CGMCC 1.0459, N.A. = no activity at 0.8 nmol peptide each well
# Procedure: (§1) The antimicrobial activity of seven peptides, including MeuFSPL-1, MeuFSPL-2, Marmelittin, Melittin, Meucin-22, Marcin-22, and MeuTXKβ1, was evaluated by the inhibition-zone assay previously described in our studies (Hultmark, [1998]; Zhu et al., [2012a]; Zhu and Gao, [2014]). Temperatures used were 30 or 37°C for bacteria or 28°C for fungi. Media used were Luria-Bertani (LB) Broth (10 g tryptone, 5 g yeast extract, and 5 g NaCl in 1 l of water) or Nutrient Broth (10 g peptone, 5 g beef extract powder, and 5 g NaCl in 1 l of water) or GYM(Isp2) (4 g yeast extract, 10 g malt extract, 4 g glucose, 2 g CaCO3 in 1 l of water) for bacteria or Potato Dextrose Broth (200 g patato and 20 g glucose in 1 l of water) for fungi. To make plates, 10 μl of microbial culture (~2 × 10^6 bacterial cells or fungal spores/ml) were mixed in 6 ml of medium containing 0.8% agar and poured into Peri dishes of 9.0 cm diameter. Wells with a diameter of 2 mm were punched into the medium, filled with 2 μl of sample each well. In this assay, three different doses of peptides were applied to three independent wells in one standard bacterial plate. After incubation overnight, inhibition zones were measured and used to calculate lethal concentrations (CL), a concentration just sufficient to inhibit bacterial growth (Hultmark, [1998]; Gao et al., [2009]). CL values are calculated from a plot of d^2 against log n, where d is the diameter (in cm) and n is the amount of sample applied in the well (in nmol). The plot is linear and thus CL can be calculated from the slope (k) and the intercept (m) of this plot. The formula used here is CL = 2.93/ak10^m/k, where “a” is the thickness of the bacterial plate and “CL” is in μM.
# [2] = test system: Bacillus subtilis CGMCC 1.2428; conditions: BS CGMCC 1.2428, N.A. = no activity at 0.8 nmol peptide each well
# Procedure: as §1
# Candida albicans SZ56 = conditions: CA SZ56, 28°C, N.A. = no activity at 0.8 nmol peptide each well
# Procedure: as §1
# [3] = test system: Escherichia coli ATCC 25922; conditions: EC ATCC 25922, N.A. = no activity at 0.8 nmol peptide each well
# Procedure: as §1
# [4] = test system: Escherichia coli Am. J16c; conditions: EC Am. J16c, N.A. = no activity at 0.8 nmol peptide each well
# Procedure: as §1
# [5] = test system: Escherichia coli Am. J23a; conditions: EC Am. J23a, N.A. = no activity at 0.8 nmol peptide each well
# Procedure: as §1
# [6] = test system: Escherichia coli CIP. J14b; conditions: EC CIP. J14b, N.A. = no activity at 0.8 nmol peptide each well
# Procedure: as §1
# Escherichia coli D. G2b = conditions: EC D. G2b, N.A. = no activity at 0.8 nmol peptide each well
# Procedure: as §1
# [7] = test system: Micrococcus luteus CGMCC 1.0290; conditions: ML CGMCC 1.0290, N.A. = no activity at 0.8 nmol peptide each well
# Procedure: as §1
# [8] = test system: Staphylococcus aureus J685; conditions: SA J685, N.A. = no activity at 0.8 nmol peptide each well
# Procedure: as §1
# [9] = test system: Staphylococcus aureus J698; conditions: SA J698, N.A. = no activity at 0.8 nmol peptide each well
# Procedure: as §1
# [10] = test system: Staphylococcus aureus J700; conditions: SA J700, N.A. = no activity at 0.8 nmol peptide each well
# Procedure: as §1
# [11] = test system: Staphylococcus warneri ATCC 1.2824; conditions: SW ATCC 1.2824, N.A. = no activity at 0.8 nmol peptide each well
# Procedure: as §1
# [12] = test system: Stenotrophomonas maltophilia CGMCC 1.1788; conditions: SMAL CGMCC 1.1788, N.A. = no activity at 0.8 nmol peptide each well
# Procedure: as §1
# [13] = test system: Streptococcus mutans ATCC 1.2499; conditions: SM ATCC 1.2499, N.A. = no activity at 0.8 nmol peptide each well
# Procedure: as §1
# [14] = test system: Streptococcus salivarius ATCC 1.2498; conditions: SSAL ATCC 1.2498, N.A. = no activity at 0.8 nmol peptide each well
# Procedure: as §1
# [15] = test system: Streptococcus sanguinis ATCC 1.2497; conditions: SSAN ATCC 1.2497, N.A. = no activity at 0.8 nmol peptide each well
# Procedure: as §1
# [16] = test system: methicillin-resistant Staphylococcus aureus P1374; conditions: MRSA P1374, N.A. = no activity at 0.8 nmol peptide each well
# Procedure: as §1
# [17] = test system: methicillin-resistant Staphylococcus aureus P1386; conditions: MRSA P1386, N.A. = no activity at 0.8 nmol peptide each well
# Procedure: as §1
# [18] = test system: methicillin-resistant coagulase-negative Staphylococcus P1369; conditions: MRCNS P1369, N.A. = no activity at 0.8 nmol peptide each well
# Procedure: as §1
# [19] = test system: methicillin-sensitive Staphylococcus aureus CGMCC 1.89; conditions: MSSA CGMCC 1.89, N.A. = no activity at 0.8 nmol peptide each well
# Procedure: as §1
# [20] = test system: penicillin-resistant Staphylococcus aureus P1383; conditions: PRSA P1383; inhibition-zone assay; N.A. = no activity at 0.8 nmol peptide each well
# Procedure: as §1
# [21] = test system: penicillin-resistant Staphylococcus epidermidis P1389; conditions: PRSE P1389, N.A. = no activity at 0.8 nmol peptide each well
# Procedure: as §1
# [22] = test system: penicillin-sensitive Staphylococcus epidermidis P1111; conditions: PSSE P1111, N.A. = no activity at 0.8 nmol peptide each well
# Procedure: as §1
Substance,Lethal concentration (CL) [1] [µM],Lethal concentration (CL) [2] [µM],Lethal concentration (CL) (Candida albicans SZ56) [µM],Lethal concentration (CL) [3] [µM],Lethal concentration (CL) [5] [µM],Lethal concentration (CL) (Escherichia coli D. G2b) [µM],Lethal concentration (CL) [7] [µM],Lethal concentration (CL) [8] [µM],Lethal concentration (CL) [9] [µM],Lethal concentration (CL) [10] [µM],Lethal concentration (CL) [11] [µM],Lethal concentration (CL) [12] [µM],Lethal concentration (CL) [13] [µM],Lethal concentration (CL) [14] [µM],Lethal concentration (CL) [15] [µM],Lethal concentration (CL) [16] [µM],Lethal concentration (CL) [17] [µM],Lethal concentration (CL) [18] [µM],Lethal concentration (CL) [19] [µM],Lethal concentration (CL) [20] [µM],also measured
FLFSLIPSAISGLISAFKGRRKRDLN-NH2 [MarMEL],2.86,3.13,8.49,6.41,4.69,6.24,1.85,8.41,6.24,10.86,0.18,4.14,2.85,4.70,4.70,2.60,8.11,3.01,4.87,2.35,Lethal concentration (CL) [4]: 7.75 µM; Lethal concentration (CL) [6]: 8.41 µM; Lethal concentration (CL) [21]: 3.12 µM; Lethal concentration (CL) [22]: 4.24 µM
FLFSLIPSAISGLINAFK-NH2 [MeuFSPL-2],2.67,4.01,14.80,12.16,37.43,21.42,1.50,5.36,4.11,8.44,8.65,3.52,5.23,5.36,2.70,3.61,5.13,3.88,3.14,3.52,Lethal concentration (CL) [6]: 37.43 µM; Lethal concentration (CL) [21]: 5.13 µM; Lethal concentration (CL) [22]: 4.77 µM
FLFSLIPSAISGLISAFK-NH2 [MeuFSPL-1],2.10,4.74,21.82,12.50,25.00,25.00,2.26,14.72,4.80,10.92,2.81,1.13,4.22,4.80,5.20,6.16,6.24,8.48,5.27,2.81,Lethal concentration (CL) [4]: 43.66 µM; Lethal concentration (CL) [21]: 7.36 µM; Lethal concentration (CL) [22]: 7.36 µM
